# Target: APH(9)-Ia (Legionella pneumophila, UniProt O06916)
# Experiment: biochemical
# Chain of APH(9)-Ia (O06916 1-331): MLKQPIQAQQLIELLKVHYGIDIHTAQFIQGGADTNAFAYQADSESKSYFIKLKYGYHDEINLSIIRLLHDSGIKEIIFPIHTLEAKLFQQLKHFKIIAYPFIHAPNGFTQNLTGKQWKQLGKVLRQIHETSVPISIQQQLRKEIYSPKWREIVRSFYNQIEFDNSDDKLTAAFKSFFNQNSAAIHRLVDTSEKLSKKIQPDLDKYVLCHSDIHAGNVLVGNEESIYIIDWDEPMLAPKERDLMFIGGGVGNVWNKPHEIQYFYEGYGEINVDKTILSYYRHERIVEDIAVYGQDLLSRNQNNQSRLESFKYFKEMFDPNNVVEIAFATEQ
compound,measurement,value
"NCCNS(=O)(=O)c1ccc(Cl)c2ccncc12 [CKI-7, N-(2-aminoethyl)-5-chloro-isoquinoline-8-sulfonamide]",Ki,159 ± 11 µM
